According to the supplement of paper PMC10307832:

How the values were obtained:
Assay in all cases: relative viability (nuclei count vs DMSO), 5 days (fraction); higher = more cells survive
[1] = compound: CC1(COc2ccc3c(c2)ncn3-c2ccc3cccc(N4CCC(N)CC4)c3n2)COC1 [Crenolanib] + CC1(C)CCC(c2ccc(Cl)cc2)=C(CN2CCN(c3ccc(C(=O)NS(=O)(=O)c4ccc(N[C@H](CCN5CCOCC5)CSc5ccccc5)c(S(=O)(=O)C(F)(F)F)c4)cc3)CC2)C1 [Navitoclax] (partner 0.5 µM)
Method in brief: (§1)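 Lung cancer cell lines, seeded in 1536-well plates, were treated the following day by pin tool with a single drug or with five library-drug doses (not always all listed) in √10 steps on top of a fixed anchor-drug dose. Cells were fixed and nuclei stained in one step after 5 days, and nuclei were counted. Relative viability is the nuclei count for treated wells divided by that for vehicle wells, reported as medians of duplicate plates.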

[2] = compound: CC1(COc2ccc3c(c2)ncn3-c2ccc3cccc(N4CCC(N)CC4)c3n2)COC1 [Crenolanib] + CS(=O)(=O)CCNCc1ccc(-c2ccc3ncnc(Nc4ccc(OCc5cccc(F)c5)c(Cl)c4)c3c2)o1 [Lapatinib] (partner 2 µM)
Method in brief: as §1

[3] = compound: O=C1NC(=O)[C@@H](c2cn3c4c(cccc24)CCC3)[C@@H]1c1c[nH]c2ccccc12 [Tivantinib] + CCNC(=O)c1noc(-c2cc(C(C)C)c(O)cc2O)c1-c1ccc(CN2CCOCC2)cc1 [Luminespib] (partner 0.01 µM)
Method in brief: as §1

[4] = compound: O=C1NC(=O)[C@@H](c2cn3c4c(cccc24)CCC3)[C@@H]1c1c[nH]c2ccccc12 [Tivantinib] + Cc1nc(Nc2ncc(C(=O)Nc3c(C)cccc3Cl)s2)cc(N2CCN(CCO)CC2)n1 [Dasatinib] (partner 0.075 µM)
Method in brief: as §1

Cell Line | relative viability ([1]; first compound 0.01 µM) | relative viability ([1]; first compound 0.03162 µM) | relative viability ([1]; first compound 0.1 µM) | relative viability ([1]; first compound 0.3162 µM) | relative viability ([1]; first compound 1 µM) | relative viability ([2]; first compound 0.01 µM) | relative viability ([2]; first compound 0.03162 µM) | relative viability ([2]; first compound 0.1 µM) | relative viability ([2]; first compound 0.3162 µM) | relative viability ([2]; first compound 1 µM) | relative viability ([3]; first compound 0.01 µM) | relative viability ([3]; first compound 0.03162 µM) | relative viability ([3]; first compound 0.1 µM) | relative viability ([3]; first compound 0.3162 µM) | relative viability ([4]; first compound 0.01 µM) | relative viability ([4]; first compound 0.03162 µM) | relative viability ([4]; first compound 0.1 µM) | relative viability ([4]; first compound 0.3162 µM)
NCI-H1793 | 0.441 | 0.362 | 0.386 | 0.386 | 0.511 | 0.767 | 0.799 | 0.475 | 0.855 | 0.645 | 0.186 | 0.22 | 0.156 | 0.203 | 0.345 | 0.419 | 0.376 | 0.346
NCI-H2085 | 1.08 | 1.12 | 1.09 | 1.24 | 1.17 | 0.65 | 0.81 | 0.731 | 0.745 | 0.799 | 0.429 | 0.379 | 0.403 | 0.42 | 0.331 | 0.244 | 0.239 | 0.209
COR-L 105 | 0.766 | 0.778 | 0.713 | 0.975 | 0.884 | 0.353 | 0.403 | 0.345 | 0.37 | 0.335 | 0.708 | 0.835 | 0.873 | 0.742 | 0.42 | 0.287 | 0.334 | 0.216
SK-LU-1 | 0.923 | 1.02 | 0.472 | 1.05 | 0.803 | 0.911 | 0.917 | 0.694 | 0.921 | 0.958 | 0.183 | 0.218 | 0.197 | 0.199 | 0.186 | 0.178 | 0.173 | 0.169
PC-3 [JPC-3] | 0.783 | 0.788 | 0.754 | 0.841 | 0.869 | 0.452 | 0.45 | 0.511 | 0.449 | 0.452 | 0.794 | 0.777 | 0.678 | 0.575 | 0.962 | 1.02 | 0.988 | 0.585
NCI-H2087 | 1.02 | 0.9 | 0.867 | 1.06 | 1.12 | 1.14 | 1 | 0.985 | 1.18 | 1.09 | 0.165 | 0.182 | 0.139 | 0.137 | 0.83 | 0.942 | 0.825 | 0.913
NCI-H1755 | 0.974 | 1.02 | 0.998 | 1.01 | 0.993 | 1.02 | 1.08 | 0.987 | 1.12 | 0.967 | 0.478 | 0.473 | 0.4 | 0.437 | 0.482 | 0.437 | 0.401 | 0.39
NCI-H2228 | 0.796 | 0.62 | 0.764 | 1.24 | 1.3 | 0.964 | 0.876 | 0.969 | 1.27 | 1.28 | – | 0.152 | 0.168 | 0.125 | – | 0.484 | 0.539 | 0.352
EMC-BAC-2 | 1.22 | 1.21 | 1.09 | 1.36 | 1.16 | 0.912 | 0.862 | 0.882 | 0.931 | 0.81 | 1.17 | 1.17 | 1.18 | 1.08 | 0.35 | 0.307 | 0.183 | 0.343
